Source: patent US6432681B1, “Compositions for treating Escherichia coli urinary tract infections” (The Regents of the University of Washington, priority 1992, dated 2002)

Assays:
[1] = tested on: Escherichia coli R45; experiment: Bacterial overlay assay: binding of 35S-labelled E. coli R45 to glycolipids separated on HPTLC; details: for binding of E. coli R45 to glycolipid standards: GSL standards separated on HPTLC plates; for reaction of E. coli R45 with SGG and DSGG standards (FIG. 1A): standards run beside vaginal epithelial cell gangliosides, autoradiogram
Procedure: E. coli R45 was isolated from a person with cystitis which had the pap family genotype, expressing both the P and F adhesins (Stapleton, A. et al., J. Infect Dis., 163:773-779, 1989). Organisms were kept frozen in 50% glycerol/50% Luria broth (Maniatis, T. et al., Molecular Cloning: A Laboratory Manual, 1982) at −70° C. until the night before use, when they were streaked onto Luria agar plates (Maniatis, T. et al., Molecular Cloning: A Laboratory Manual, 1982) to promote fimbrial expression and grown overnight at 37° C. On the day of use, bacteria were scraped from the plate, resuspended in M9 medium (Maniatis, T. et al., Molecular Cloning: A Laboratory Manual, 1982) without amino acids, and shaken at 37° C. for 40 minutes to deplete cellular methionine stores. ^35S-methionine (Trans^35S-label, 1137 Ci/mmol, ICN Biochemicals, Irvine, California) was then added at 200 μCi per 10^10 organisms. The cells were shaken for one hour, washed three times in PBS and resuspended in PBS (pH 7.3), and counted in a scintillation counter to give a final activity of approximately 0.01 to 0.02 cpm/organism.
(§1) Glycolipids (10 to 40 μg/lane) were chromatographed on glass HPTLC plates (Whatman) in CMW (50:40:10 by volume) with 0.05% CaCl2 with one plate run in parallel for orcinol staining. Plates were dried, dipped for 1 minute in diethyl ether containing 0.5% polyisobutylmethacrylate, dried, and preincubated in 1% bovine serum albumin (BSA)/PBS for one hour, then washed three times in PBS. Radiolabelled bacteria were overlaid (10^8 cpm total per plate) and the plates were gently rocked for one hour, washed four times in PBS and subjected to autoradiography.
The binding of metabolically radiolabelled E. coli strain R45 to glycolipid standards separated on HPTLC plates was determined using a broad panel of GSLs with varying carbohydrate moieties, as shown in Table 2.
Subsequent experiments were conducted to identify the unique E. coli-binding GSL band detected in nonsecretors' vaginal epithelial cells. Total upper neutral GSLs and total upper gangliosides were extracted from vaginal epithelial cells pooled in equal quantities from 5 nonsecretors and 9 secretors and reacted with radiolabelled E. coli R45.
Lane 1 contains ceramide trihexoasyl and globoside standards; Lane 2 contains total lower phase GSLs from the nonsecretors; Lane 3 contains total lower phase GSLs from the secretors; Lane 4 contains the Forssman antigen standard; Lanes 5 and 6 contain total upper neutral GSLs from nonsecretors and secretors, respectively; Lanes 7 and 10 contain gal-globoside, sialosyl gal-globoside, and disialosyl gal-globoside standards; Lanes 8 and 9 contain total upper phase gangliosides from nonsecretors and secretors, respectively.

[2] = tested on: MAb ID4 (directed against SGG); experiment: Radioimmunoassay of GSLs immobilized in microtiter wells with MAb ID4; assay type: binding; details: standards from human pancreas, bovine brain (GD1a), human placenta (disialosyl I)
Procedure: Radioimmunoassays of GSLs immobilized in microtiter wells were performed according to the method of Karlsson (Karlsson, K.-A. et al., Methods Enzymol., 138:220-232, 1987).
The SGG and DSGG bands from the nonsecretors' vaginal epithelial cell extracts were then reacted with ID4 in a radioimmunoassay, shown in FIG. 3.
In FIG. 3, the dotted line indicates sialosyl gal-globoside (SGG) standard from human pancreas; the solid line indicates the band co-migrating with SGG eluted from TLC of nonsecretors' extracted vaginal epithelial cells; the dashed line indicates eluted band co-migrating with DSGG from nonsecretors and the following GSL standards: gal-globoside and DSGG from human pancreas, GD1a from bovine brain, and disialosyl I from human placenta.

[3] = tested on: E. coli isolates R45, IA2, JJ122, pDC1 and pJFK102; experiment: Bacterial overlay assay: binding of five 35S-labelled E. coli UTI isolates to serially diluted globo-series GSLs, radioactivity counted; design: species or system Escherichia coli; details: all five isolates; GSL serially diluted from 300 ng to 18.25 ng on HPTLC
Procedure: as §1
Five isolates of E. coli were isolated from patients with UTI, R45 (wild-type cystitis isolate expressing class II pap adhesin), IA2 (wild-type isolate expressing class II pap adhesin), JJ122 (expresses class I pap adhesin), pDC1 (a subclone of IA2, expresses class II pap adhesin) and pJFK102 (expresses class III pap adhesin). The five strains were labelled metabolically with ^35S and exposed to various glycosphingolipids (GSL) separated by HPTLC in the bacterial overlay assay described hereinabove. The amount of radioactivity in the area of each GSL was counted. Controls included HB101.
The GSL's tested were CTH (globotriaosylceramide, isolated from human red blood cells), globoside (also isolated from human erythrocytes), SGG (isolated from vaginal epithelial cells or human kidney), CMH (ceramide monohexoside isolated from adenocarcinoma of colon, negative control) and DSGG (isolated from the same sources as SGG). The GSL's were serially diluted beginning with 300 ng and ending at 18.25 ng.

Substance	binding of E. coli R45 to glycolipid standards [1]	reaction of antibody ID4 with GSL standards (FIG. 3) [2]	level of binding of the E. coli isolates to the GSL [3]	reaction of E. coli R45 with SGG and DSGG standards (FIG. 1A) [1]
(Fucα1-2)Galβ1-3 GalNAcβ1-3 Galα1-4 Galβ1-4 Glcβ1-1cer [Globo H]	bound			
GalNAcα1-3 Galβ1-3 GalNAcβ1-3 Galα1-4 Galβ1-4 Glcβ1-1cer [Forssman]	bound			
NeuAcα2-3 Galβ1-3 GalNAcβ1-3 Galα1-4 Galβ1-4 Glcβ1-1ce [SGG]		reacted	highest binding	reacted
GalNAcβ1-3 Galα1-4 Galβ1-4 Glcβ1-1cer [Globoside]	bound		lower than to DSGG	
Galβ1-3 GalNAcβ1-3 Galα1-4 Galβ1-4 Glcβ1-1cer [Gal-globoside]	bound	did not bind		
Galα1-4 Galβ1-4 Glcβ1-1cer [CTH]			lower than to DSGG	
GalNAcα1-3 (Fucα1-2)Galβ1-3 GalNacβ1-3 Galα1-4 Galβ1-4 Glcβ1-1cer [Globo A]	bound			
NeuAcα2-3 (NeuAcα2-6)Galβ1-3 GalNAcβ1-3 Galα1-4 Galβ1-4 Glcβ1-1cer [DSGG]		did not bind		reacted
GD1a		did not bind		
